Measurements published in the supplement of paper PMC10307832.

What was measured:
Assay in all cases: relative viability (nuclei count vs DMSO), 5 days (fraction); higher = more cells survive
[1] = compound: O=C(Nc1cccc(C(F)(F)F)c1)Nc1cc(S(=O)(=O)NC2CC2)ccc1-c1ccsc1 [AGI-6780] + O=C(c1cc(Cc2n[nH]c(=O)c3ccccc23)ccc1F)N1CCN(C(=O)C2CC2)CC1 [Olaparib] (partner 8 µM)
Method in brief: (§1)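 One day after seeding in 1536-well plates, lung cancer cell lines were dosed by pin tool. Dosing was either single-drug or a fixed anchor-drug dose plus five library-drug doses (not always all listed) in √10 steps. After 5 days, nuclei were stained in one fix-and-stain step and counted on 4× images, and relative viability is the nuclei count of treated wells over that of vehicle wells, given as the median of duplicate plates.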

[2] = compound: O=C(Nc1cccc(C(F)(F)F)c1)Nc1cc(S(=O)(=O)NC2CC2)ccc1-c1ccsc1 [AGI-6780] + C[C@]1(O)C[C@@H](c2nc(-c3ccc4ccc(-c5ccccc5)nc4c3)c3c(N)nccn32)C1 [Linsitinib] (partner 1 µM)
Method in brief: as §1

[3] = compound: O=C(Nc1cccc(C(F)(F)F)c1)Nc1cc(S(=O)(=O)NC2CC2)ccc1-c1ccsc1 [AGI-6780] + Nc1nc2[nH]cc(CCc3ccc(C(=O)N[C@@H](CCC(=O)O)C(=O)O)cc3)c2c(=O)[nH]1 [Pemetrexed] (partner 0.2 µM)
Method in brief: as §1

[4] = compound: O=C(Nc1cccc(C(F)(F)F)c1)Nc1cc(S(=O)(=O)NC2CC2)ccc1-c1ccsc1 [AGI-6780] + O=C(CCCCCCC(=O)Nc1ccccc1)NO [Vorinostat] (partner 1 µM)
Method in brief: as §1

| Cell Line | relative viability ([1]; first compound 0.08 µM) | relative viability ([1]; first compound 0.253 µM) | relative viability ([1]; first compound 0.8 µM) | relative viability ([1]; first compound 2.53 µM) | relative viability ([1]; first compound 8 µM) | relative viability ([2]; first compound 0.08 µM) | relative viability ([2]; first compound 0.253 µM) | relative viability ([2]; first compound 0.8 µM) | relative viability ([2]; first compound 2.53 µM) | relative viability ([2]; first compound 8 µM) | relative viability ([3]; first compound 0.08 µM) | relative viability ([3]; first compound 0.253 µM) | relative viability ([3]; first compound 0.8 µM) | relative viability ([3]; first compound 2.53 µM) | relative viability ([3]; first compound 8 µM) | relative viability ([4]; first compound 0.08 µM) | relative viability ([4]; first compound 0.253 µM) | relative viability ([4]; first compound 0.8 µM) | relative viability ([4]; first compound 2.53 µM) | relative viability ([4]; first compound 8 µM) |
| --- | --- | --- | --- | --- | --- | --- | --- | --- | --- | --- | --- | --- | --- | --- | --- | --- | --- | --- | --- | --- |
| 201T | 0.869 | 0.837 | 0.84 | 0.871 | 0.775 | 1.06 | 1.06 | 1.02 | 0.993 | 1.01 | 0.34 | 0.325 | 0.345 | 0.31 | 0.291 | 0.991 | 0.98 | 1.06 | 0.951 | 1.04 |
| A-427 | – | 0.712 | 0.738 | 0.649 | 0.732 | 1.09 | 1.07 | 1.1 | 1.03 | 1.12 | – | 0.932 | 1.01 | 0.929 | 0.971 | – | 0.82 | 0.857 | 0.816 | 0.836 |
| ABC-1 | – | 0.965 | 0.888 | 0.779 | 0.792 | 0.756 | 0.501 | 0.835 | 0.736 | 0.601 | – | – | – | – | – | – | 1.52 | 1.38 | 0.842 | 1.03 |
| BEN | 1.02 | 1.02 | 1.22 | – | 0.961 | 0.894 | 0.845 | 1.07 | – | 0.971 | 0.644 | 0.876 | 0.718 | – | 0.965 | 0.62 | 0.539 | 0.692 | – | 0.629 |
| CAL-12T | 0.712 | 0.662 | 0.648 | 0.667 | 0.78 | 0.771 | 0.726 | 0.72 | 1 | 0.892 | 1.25 | 1.27 | 1.35 | 1.25 | 1.26 | 0.884 | 0.729 | 1.16 | 0.662 | 0.732 |
| COR-L23 | 0.349 | 0.385 | 0.274 | 0.32 | 0.387 | 0.969 | 0.766 | 0.77 | 1.08 | 0.891 | 0.213 | 0.215 | 0.206 | 0.207 | 0.188 | 0.348 | 0.425 | 0.429 | 0.554 | 0.453 |
| COR-L 105 | 0.632 | 0.466 | 0.707 | 0.66 | 0.541 | 0.989 | 0.946 | 0.941 | 0.808 | 0.952 | 1.26 | 0.965 | 1.17 | 0.923 | 1.08 | 0.908 | 1.34 | 0.975 | 0.97 | 0.841 |
| Calu-6 | 0.598 | 0.601 | 0.584 | 0.559 | 0.543 | 0.984 | 1.02 | 0.897 | 0.852 | 0.955 | – | – | – | – | – | – | – | – | – | – |
| ChaGo-K-1 | 0.437 | 0.457 | 0.377 | 0.411 | 0.422 | – | – | – | – | – | 0.26 | 0.267 | 0.261 | 0.255 | 0.25 | 0.727 | 0.787 | 0.745 | 0.63 | 0.825 |
| EBC-1 | 0.788 | 0.789 | 0.664 | 0.655 | 0.747 | 0.861 | 1.13 | 0.885 | 0.836 | 0.94 | – | – | – | – | – | – | – | – | – | – |
| EKVX | 0.894 | 0.811 | 0.935 | 0.763 | 0.863 | 1.09 | 1.03 | 0.966 | 1.05 | 1.04 | 0.381 | 0.403 | 0.342 | 0.388 | 0.4 | 0.827 | 0.686 | 0.752 | 0.721 | 0.614 |
| EMC-BAC-2 | – | 0.477 | 0.409 | 0.45 | 0.53 | 0.845 | 0.82 | 0.835 | 0.782 | 0.822 | – | 0.434 | 0.43 | 0.55 | 0.44 | – | 0.453 | 0.809 | 0.4 | 0.421 |
| EPLC-272H | 0.748 | 0.827 | 0.633 | 0.732 | 0.942 | 1.28 | 1.43 | 1.21 | 1.03 | 1.11 | 0.302 | 0.4 | 0.27 | 0.398 | 0.272 | 0.351 | 0.401 | 0.318 | 0.554 | 0.289 |
| H3255 | 0.505 | 0.526 | 0.607 | 0.566 | 0.632 | 1 | 0.947 | 0.96 | 0.968 | 0.969 | 0.554 | 0.549 | 0.636 | 0.629 | 0.581 | 0.541 | 0.865 | 0.893 | – | 0.867 |
| HARA | 0.847 | 0.945 | 0.311 | 0.893 | 0.83 | 0.921 | 0.949 | 0.841 | 0.971 | 0.985 | 0.248 | 0.266 | 0.199 | 0.271 | 0.239 | 0.431 | 0.575 | 0.499 | 0.528 | 0.616 |
| HCC-15 | 0.724 | 0.808 | 0.703 | 0.657 | 0.76 | 0.897 | 0.867 | 0.941 | 0.777 | 0.821 | 0.227 | 0.245 | 0.204 | 0.215 | 0.207 | 0.917 | 0.88 | 0.875 | 0.832 | 0.828 |
| HCC-44 | 1.03 | 0.989 | 0.98 | 0.979 | 1.02 | 0.714 | 0.73 | 0.693 | 0.622 | 0.597 | 0.657 | 0.681 | 0.601 | 0.631 | 0.616 | 1.16 | 1.03 | 1.13 | 1.08 | 1.11 |
| HCC-78 | 0.897 | 0.798 | 1.06 | 0.665 | 0.849 | 0.592 | 0.491 | 0.587 | 0.561 | 0.537 | 0.957 | 0.859 | 0.908 | 0.85 | 0.927 | 0.527 | 0.411 | 0.577 | 0.432 | 0.389 |
